Patent US9458181B2, “Cathepsin cysteine protease inhibitors” (Merck Sharp & Dohme Corp., priority 2013, dated 2016)

Assays:
[1] = molecular target: T1, human cathepsin F (Homo sapiens, UniProt Q9UBX1); experiment: Cathepsin F assay (hCat F); assay type: biochemical; settings: human cathepsin F 10 nM, Z-Phe-Arg-AMC 8 μM, pH 5.5, 15 min preincubation; read-out: hCat F IP
T1 sequence (Q9UBX1 271-484): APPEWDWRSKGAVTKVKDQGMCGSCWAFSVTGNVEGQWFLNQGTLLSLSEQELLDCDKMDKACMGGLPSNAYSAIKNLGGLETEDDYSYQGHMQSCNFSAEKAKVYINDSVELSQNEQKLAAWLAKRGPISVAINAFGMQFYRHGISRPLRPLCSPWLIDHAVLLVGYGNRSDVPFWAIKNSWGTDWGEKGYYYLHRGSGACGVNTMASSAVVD
How it was run: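 Human cathepsin F (10 nM) in 50 mM MES pH 5.5, 2.5 mM EDTA, 2.5 mM DTT, 10% DMSO was preincubated 15 min at RT with compounds from a ⅓ DMSO dilution series (500–0.025 μM stocks). Z-Phe-Arg-AMC was added (8 μM as added), and AMC release was read by fluorescence (360/460 nm) for 20 min. Percent inhibition was fitted to a dose-response model.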

[2] = molecular target: human cathepsin K (UniProt P43236); experiment: Cathepsin K Assay (hrbCat K); assay type: biochemical; settings: human cathepsin K 0.4 nM, Z-Leu-Arg-AMC 8 μM, pH 5.5, 15 min preincubation; read-out: hrbCat K IP
How it was run: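 Human cathepsin K (0.4 nM) in pH 5.5 MES buffer with EDTA, DTT and 10% DMSO was preincubated 15 min at room temperature with compound from a ⅓ dilution series (500-0.025 μM DMSO stocks). Z-Leu-Arg-AMC (8 μM) was then added, and AMC release was followed fluorometrically (Ex 360/Em 460 nm) for 30 min; inhibition was fitted to a dose-response model.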

IC50 [1] [nM]	IC50 [2] [nM]	SMILES
458	1.39	N#CC1(NC(=O)[C@@H]2CCCC[C@H]2c2oc(-c3ccc(F)cc3)nc2-c2ccc(N3CC[S+]([O-])CC3)cc2)CC1 [Example 135, (1R,2R)-N-(1-cyanocyclopropyl)-2-(2-(4-fluorophenyl)-4-(4-(1-oxidothiomorpholino)phenyl)oxazol-5-yl)cyclohexanecarboxamide]
295	0.39	C[C@@H](C#N)NC(=O)[C@@H]1CC(F)(F)CC[C@H]1c1oc(C(F)(F)C(F)(F)F)nc1-c1ccc(C(=O)N2CCOCC2)cc1 [Example 137, (1R,2R)-N-((S)-1-cyanoethyl)-5,5-difluoro-2-(4-(4-(morpholine-4-carbonyl)phenyl)-2-(perfluoroethyl)oxazol-5-yl)cyclohexanecarboxamide]
372	1.93	CS(=O)(=O)N1CCN(C(=O)c2ccc(-c3nc(C(F)(F)C(F)(F)F)oc3[C@@H]3CCC(F)(F)C[C@H]3C(=O)NC3(C#N)CC3)cc2)CC1 [Example 140, (1R,2R)-N-(1-cyanocyclopropyl)-5,5-difluoro-2-(4-(4-(4-(methylsulfonyl)piperazine-1-carbonyl)phenyl)-2-(perfluoroethyl)oxazol-5-yl)cyclohexanecarboxamide]
167	0.9	C[C@@H](C#N)NC(=O)[C@@H]1CCCC[C@H]1c1oc(-c2ccc(F)cc2)nc1-c1ccc(N2CC[S+]([O-])CC2)cc1 [Example 141, (1R,2R)-N-((S)-1-cyanoethyl)-2-(2-(4-fluorophenyl)-4-(4-(1-oxidothiomorpholino)phenyl)oxazol-5-yl)cyclohexanecarboxamide]
352	1.92	N#CC1(NC(=O)[C@@H]2C[C@@H](F)CC[C@H]2c2oc(C(F)(F)F)nc2-c2ccc(N3CCS(=O)(=O)CC3)cc2)CC1 [Example 146, (1R,2R,5S)-N-(1-cyanocyclopropyl)-2-(4-(4-(1,1-dioxidothiomorpholino)phenyl)-2-(trifluoromethyl)oxazol-5-yl)-5-fluorocyclohexane-carboxamide]
839	89.7	N#CC1(NC(=O)[C@@H]2CCCC[C@H]2c2oc(-c3ccc(F)cc3)nc2-c2ccc(N3CCc4ccccc43)cc2)CC1 [Example 152, (1R,2R)-N-(1-cyanocyclopropyl)-2-(2-(4-fluorophenyl)-4-(4-(indolin-1-yl)phenyl)oxazol-5-yl)cyclohexanecarboxamide]

The next lines start with the molecule.

SMILES	IC50 [1] [nM]	IC50 [2] [nM]
N#CCNC(=O)[C@@H]1CC(F)(F)CC[C@H]1c1oc(C(F)(F)C(F)(F)F)nc1-c1ccc(C(=O)N2CCOCC2)cc1 [Example 136, (1R,2R)-N-(cyanomethyl)-5,5-difluoro-2-(4-(4-(morpholine-4-carbonyl)phenyl)-2-(perfluoroethyl)oxazol-5-yl)cyclohexanecarboxamide]	319	0.74
N#CC1(NC(=O)[C@@H]2CCC(F)(F)C[C@H]2c2oc(-c3ccc(F)cc3)nc2-c2ccc(N3CCS(=O)(=O)CC3)cc2)CC1 [Example 139, (1R,2R)-N-(1-cyanocyclopropyl)-2-(4-(4-(1,1-dioxidothiomorpholino)phenyl)-2-(4-fluorophenyl)oxazol-5-yl)-4,4-difluorocyclohexane-carboxamide]	2420	3.84
CC(C)(C)c1nc(-c2ccc(N3CCS(=O)(=O)CC3)cc2)c([C@@H]2CC[C@H](F)C[C@H]2C(=O)NC2(C#N)CC2)o1 [Example 147, (1R,2R,5S)-2-(2-(tert-butyl)-4-(4-(1,1-dioxidothiomorpholino)phenyl)oxazol-5-yl)-N-(1-cyanocyclopropyl)-5-fluorocyclohexane-carboxamide]	2410	1.5
CC(C)[C@@H](C#N)NC(=O)[C@@H]1CC(F)(F)CC[C@H]1c1oc(C(F)(F)C(F)(F)F)nc1-c1ccc(C(=O)N2CCOCC2)cc1 [Example 148, (1R,2R)-N-((S)-1-cyano-2-methylpropyl)-5,5-difluoro-2-(4-(4-(morpholine-4-carbonyl)phenyl)-2-(perfluoroethyl)oxazol-5-yl)cyclohexanecarboxamide]	280	1.03
N#CC1(NC(=O)[C@@H]2CCC(F)(F)C[C@H]2c2oc(C(F)(F)C(F)(F)F)nc2-c2ccc(N3CCS(=O)(=O)CC3)cc2)CC1 [Example 150, (1R,2R)-N-(1-cyanocyclopropyl)-2-(4-(4-(1,1-dioxidothiomorpholino)phenyl)-2-(perfluoroethyl)oxazol-5-yl)-4,4-difluorocyclohexane-carboxamide]	≥ 10000	4.7
CC(C)[C@@H](C#N)NC(=O)[C@@H]1CCCC[C@H]1c1oc(-c2ccc(F)cc2)nc1-c1ccc(N2CC[S+]([O-])CC2)cc1 [Example 151, (1R,2R)-N-((S)-1-cyano-2-methylpropyl)-2-(2-(4-fluorophenyl)-4-(4-(1-oxidothiomorpholino)phenyl)oxazol-5-yl)cyclohexanecarboxamide]	628	3.11
N#CC1(NC(=O)[C@@H]2CCCC[C@H]2c2oc(-c3ccc(F)cc3)nc2-c2ccc(N3CCS(=O)(=O)CC3)cc2)COC1 [Example 153, (1R,2R)-N-(3-cyanooxetan-3-yl)-2-(4-(4-(1,1-dioxidothiomorpholino)phenyl)-2-(4-fluorophenyl)oxazol-5-yl)cyclohexanecarboxamide]	210	0.67
N#CC1(NC(=O)[C@@H]2CC(Cl)(Cl)CC[C@H]2c2oc(C(F)(F)C(F)(F)F)nc2-c2ccc(C(=O)N3CCOCC3)cc2)CC1 [Example 154, (1R,2R)-5,5-dichloro-N-(1-cyanocyclopropyl)-2-(4-(4-(morpholine-4-carbonyl)phenyl)-2-(perfluoroethyl)oxazol-5-yl)cyclohexanecarboxamide]	259	0.68
N#C[C@@H](NC(=O)[C@@H]1CCCC[C@H]1c1oc(-c2ccc(F)cc2)nc1-c1ccc(N2CCS(=O)(=O)CC2)cc1)C1CC1 [Example 155, (1R,2R)-N-((S)-cyano(cyclopropyl)methyl)-2-(4-(4-(1,1-dioxidothiomorpholino)phenyl)-2-(4-fluorophenyl)oxazol-5-yl)cyclohexanecarboxamide]	37	0.73
N#C[C@@H](NC(=O)[C@@H]1CCCC[C@H]1c1oc(-c2ccc(F)cc2)nc1-c1ccc(N2CCS(=O)(=O)CC2)cc1)C1CCCCC1 [Example 156, (1R,2R)-N-((S)-cyano(cyclohexyl)methyl)-2-(4-(4-(1,1-dioxidothiomorpholino)phenyl)-2-(4-fluorophenyl)oxazol-5-yl)cyclohexanecarboxamide]	179	2.41
CC(C)(C)[C@@H](C#N)NC(=O)[C@@H]1CCCC[C@H]1c1oc(-c2ccc(F)cc2)nc1-c1ccc(N2CCS(=O)(=O)CC2)cc1 [Example 157, (1R,2R)-N-((S)-1-cyano-2,2-dimethylpropyl)-2-(4-(4-(1,1-dioxidothiomorpholino)phenyl)-2-(4-fluorophenyl)oxazol-5-yl)cyclohexanecarboxamide]	2330	289
